Data from patent US20240150363A1, “COELENTERAZINE ANALOGUES” (Promega Corporation, priority 2022, published 2024).
Blank lines part the entries; values can stand above or below the compound they belong to.

Experiments:
NLuc-HaloTag fusion [1] = target: T1, NLuc-HaloTag fusion (Oplophorus gracilirostris, UniProt Q9GV45, A31E/A60N/A81I/F95D/I117V/K70R/L54V/L99Q/M102K/N193R/P142E/Q151K/Q38R/Q45L/V71I/Y165I); experiment: Total bioluminescence of purified NLuc-HaloTag fusion with substrate; assay type: biochemical; conditions: purified NLuc-HaloTag fusion 6 nM, substrate 20 μM, 1 min; compared to Furimazine and FluoroFurimazine
T1 construct: HaloTag (fusion partner)
Description: (§1) Experiments were conducted during development of embodiments herein to evaluate the influence of Furimazine analogs on the intensity of bioluminescence produced by either purified NLuc-HaloTag fusion or purified chimera (i.e., HT178-cpNLuc-179, generated by insertion of cpNLuc into HaloTag). Briefly, purified NLuc-HaloTag fusion or chimera was diluted in TBS+0.1% BSA to a final concentration of 6 nM, treated with substrate at a final concentration of 20 μM, and incubated for 1 min before measurements of total bioluminescence on a GloMax® Discover plate reader (Promega; n=3) or measurements of bioluminescence intensity across 400-600 nm on an Infinite M1000 plate reader (Tecan; n=1).

[2] = tested on: chimera (HT178-cpNLuc-179); experiment: Total bioluminescence of purified chimera with substrate; assay type: biochemical; conditions: purified chimera 6 nM, substrate 20 μM, 1 min; compared to Furimazine and FluoroFurimazine
Description: as §1

NLuc-HaloTag fusion [3] = target: T1, NLuc-HaloTag fusion; experiment: Bioluminescence of HeLa cells transiently expressing NLuc-HaloTag fusion; assay type: cell-based; conditions: substrate 10 μM, 1 min, compared to Furimazine and FluoroFurimazine
Description: (§2) Additional experiments were conducted during development of embodiments herein to evaluate the influence of Furimazine analogs on the intensity of bioluminescence produced by transiently expressed NLuc-HaloTag fusion or chimera (i.e., HT178-cpNLuc-179, generated by insertion of cpNLuc into HaloTag). Briefly, HeLa cells diluted to 2.2×10^5 cells/mL in OptiMEM+2% serum were transfected with DNA encoding either NLuc-HaloTag fusion or chimera, plated in 96-well at 90 μL/well, and incubated overnight at 37° C.+5% CO2. Next day, cells were treated with substrate at a final concentration of 10 μM and incubated for 1 min before measurements of total bioluminescence on a GloMax® Discover plate reader (Promega; n=3) or measurements of bioluminescence intensity across 400-600 nm on an Infinite M1000 plate reader (Tecan; n=1).

[4] = tested on: chimera (HT178-cpNLuc-179); experiment: Bioluminescence of HeLa cells transiently expressing chimera; assay type: cell-based; conditions: substrate 10 μM, 1 min, compared to Furimazine and FluoroFurimazine
Description: as §2

[5] = Stability of formulated Compound 6 (P-407 cake) in reconstitution buffers, LC-MS; assay type: physicochemical
Description: Experiments were conducted during development of embodiments herein to evaluate the stability of Compound 6 in various reconstitution buffer formulation. Briefly, 12 mg of Poloxamer 407 (P-407) was melted at 70˜75° C., and 4.2 μmol of Compound 6 was dissolved in 1 mL EtOH, followed by transferring the resulting solution to the melted P-407. The resulting mixture was rotated at 65˜75° C. to afford a homogeneous solution. The resulting solution was concentrated in vacuo and resuspended in 6 ml MQ water. 1 mL aliquots of the resuspended Compound 6 was then distributed into sample vials, frozen, and lyophilized to afford a formulated cake. Sample formulated cakes were then reconstituted in DPBS, HEPES, or Tris (pH 6.5, 7.5, or 8.0) buffers. Stability and purity were determined by LC-MS.

[6] = Systematic stability study of formulated Compound 6 reconstitution in buffers, LC-MS; assay type: physicochemical
Description: In addition to the stability experiments in Example 3, an additional systematic, controlled, and comprehensive stability study was conducted to evaluate the stability of formulated Compound 6 in various buffer formulation. Briefly, 4.2 μmol of Compound 6 was reconstituted in 1 mL of each buffer at the concentration and pH outlined in Table 1. Concentration and purity were determined by LC-MS. Briefly, 1 μL of sample was injected into an Eclipse RRHD C8 (50×2; 1 mm; 1.8 micron; λ=254 nm) with an aqueous mobile phase of 0.1% TFA in Nanopure water and an organic mobile phase of acetonitrile.

[7] = reconstituted using glycerol (2%)

T1 sequence (Q9GV45 other isoform, or with tags, fused parts or gaps with the stated changes): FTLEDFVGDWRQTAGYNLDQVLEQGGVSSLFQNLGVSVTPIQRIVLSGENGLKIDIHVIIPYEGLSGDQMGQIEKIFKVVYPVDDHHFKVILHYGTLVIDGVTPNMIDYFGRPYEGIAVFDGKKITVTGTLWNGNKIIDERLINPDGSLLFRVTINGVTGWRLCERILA

Structure (SMILES): Cc1ccc(Cc2nc3c(Cc4ccccc4F)[nH]c(-c4cccc(F)c4F)cn-3c2=O)o1 [Compound 10, 6-(2,3-difluorophenyl)-8-(2-fluorobenzyl)-2-((5-methylfuran-2-yl)methyl)imidazo[1,2-a]pyrazin-3(7H)-one]
bioluminescence signal as a substrate (NLuc-HaloTag fusion [1]): significantly brighter signal
bioluminescence signal as a substrate [2]: significantly brighter signal
bioluminescence signal as a substrate (NLuc-HaloTag fusion [3]): significantly brighter signal
bioluminescence signal as a substrate [4]: significantly brighter signal

stability and purity ([5]; reconstituted in DPBS): lowest stability and purity
purity after 3 h ([5]; reconstituted in HEPES): about 50%
stability ([5]; reconstituted in HEPES): improved stability compared to DPBS
purity after 3 h ([5]; reconstituted in Tris buffer): ~90%
stability ([5]; reconstituted in Tris buffer): highest stability
preservation based on purity and concentration data ([6]; in Tris (pH=8) buffer): well-preserved
preservation based on purity and concentration data ([6]; in saline): well-preserved
preservation based on purity and concentration data ([6]; in water): well-preserved
precipitation / solubility ([6]; reconstituted using DPBS (pH 7.0)): visible precipitation
precipitation / solubility ([6]; reconstituted using Tris (pH=6.5)): visible precipitation
purity over a 6-hour period ([6]; reconstituted using Tris (pH=8)): greater than 90%
purity over a 6-hour period ([6]; reconstituted using acetate (sodium acetate pH 5.2)): greater than 90%
precipitation / solubility ([6]; reconstituted using bicarbonate (pH 9.5)): visible precipitation
purity over a 6-hour period ([6]; reconstituted using citrate (pH 6.0)): greater than 90%
precipitation / solubility [6, 7]: visible precipitation
purity over a 6-hour period [6, 7]: greater than 90%
purity over a 6-hour period ([6]; reconstituted using saline (0.9%)): greater than 90%
purity over a 6-hour period ([6]; reconstituted using water): greater than 90%
Structure (SMILES): O=c1c(Cc2ccco2)nc2c(Cc3ccccc3F)[nH]c(-c3cccc(F)c3F)cn1-2 [Compound 6, 6-(2,3-difluorophenyl)-8-(2-fluorobenzyl)-2-(furan-2-ylmethyl)imidazo[1,2-a]pyrazin-3(7H)-one]
